Laboratory results from patent publication US20110105392A1 (ELI LILLY AND COMPANY, priority 2008, published 2011).

Columns and labels:
healthy volunteers = test: Euglycaemic glucose clamp after single SC dose in healthy volunteers; assay type: in vivo, human
Method: In all treatment periods, subjects undergo a euglycaemic clamp procedure for up to 24/36 hours following each insulin compound injection. Glucose infusion rates (GIR) are adjusted to maintain euglycaemia, with the documented GIR over time providing the GD measure of insulin action. The aim of the euglycaemic glucose clamp is to maintain euglycaemia through glucose infusion after the administration of a dose of an insulin compound. It is assumed that endogenous insulin secretion and hepatic glucose output are minimal and that any glucose that is translocated out of the glucose space (i.e., glucose metabolised) is the direct consequence of the administered exogenous insulin. The GIR in this case will be the glucodynamic (GD) measure of the insulin action over time. All glucose clamp studies are performed after an overnight fast of approximately 8 hours. On the morning of the study, a small catheter is placed into a vein of one arm, ideally in the ante-cubital fossa, for administration of 20% dextrose solution (buffered to near neutral pH) under the control of a volumetric pump. Another catheter is placed, ideally in the wrist or hand for venous glucose sampling. This area is heated with a warming device to approximately 55-60° C. for sampling arterialized venous blood. Blood samples are obtained at the bedside for immediate determination of whole blood glucose concentrations using an automated glucose oxidase technique. After basal blood sampling and a stabilization period of approximately 30 minutes, each subject receives a dose of insulin compound administered subcutaneously. The start of the subcutaneous injection of an insulin compound is defined as time zero. Following completion of dosing, in conjunction with frequent blood sampling for measurement of blood glucose, glucose is infused intravenously at a variable rate in order to maintain euglycaemia for up to 24 or 36 hours after insulin administration.
Blood sampling occurs approximately every 10 minutes for approximately 30 minutes prior to dosing and continued every 5-10 minutes for the first 2 hours after dosing (with the option to sample as frequently as every 2.5 minutes), and then reduced to 10-30 minute intervals up to the end of clamp.
During the glucose clamp, the glucose infusion rate is adjusted to maintain a pre-determined target blood glucose concentration for the individual subject. Preferably, the target concentration is close to the fasting blood glucose. The aim of the glucose clamp procedure is to maintain the blood glucose concentrations within +5% of the pre-dose target value, which is defined as 5 mg/dL below the mean fasting blood glucose. Thus, blood glucose concentrations are kept constant while the GIR varied. […]

[1] = calculated from published PK profiles; cited from earlier work

Row | Substance | time GD maintained (healthy volunteers; Part C, 0.5 mg/kg SC) | GIR profile versus peak GIR response for glargine (healthy volunteers; Part C, 0.5 mg/kg SC, glargine 0.5 U/kg) | within subject variability in the glucodynamics (healthy volunteers; humans) | duration of action (healthy volunteers; humans, versus insulin glargine (FIG. 2)) | peak-trough (PT) ratio [1]
1 | LY: 20 kDa PEGylated insulin lispro, about 95% or more at B28, prepared essentially as in Example 9 | greater than 36 hours | exceeded the peak GIR response for glargine | less than 30% | longer than that of insulin glargine | –
2 | insulin glargine | – | – | – | – | 1.2-2.6
